# Test results published in patent US20260028354A1, “TETRAHYDRONAPHTHALENE DERIVATIVES AS ESTROGEN RECEPTOR DEGRADERS” (REGENT OF THE UNIVERSITY OF MICHIGAN, priority 2022, published 2026).
# Read-outs that look alike come from different tables or passages of the source.
# Key:
# [1] = Cell growth assay (WST-8) for "B" compounds; format: cell-based; details: T47D, read-out: Cell growth Inhibition in T47D cell line IC50
# Procedure, shortened: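 Four-day compound exposure of cells plated at 1500/well the day before. Read-out is WST-8 (10%, 2.5 h, 37 °C) absorbance at 450 nm, normalized to vehicle control over three independent repeats.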
# [2] = target: ER (Homo sapiens (Human), UniProt P03372); assay: In-cell western blot analysis of ER for "B" compounds; format: cell-based; details: 16 hours, read-out: ICW DC50
# ER, sequence (P03372 whole entry): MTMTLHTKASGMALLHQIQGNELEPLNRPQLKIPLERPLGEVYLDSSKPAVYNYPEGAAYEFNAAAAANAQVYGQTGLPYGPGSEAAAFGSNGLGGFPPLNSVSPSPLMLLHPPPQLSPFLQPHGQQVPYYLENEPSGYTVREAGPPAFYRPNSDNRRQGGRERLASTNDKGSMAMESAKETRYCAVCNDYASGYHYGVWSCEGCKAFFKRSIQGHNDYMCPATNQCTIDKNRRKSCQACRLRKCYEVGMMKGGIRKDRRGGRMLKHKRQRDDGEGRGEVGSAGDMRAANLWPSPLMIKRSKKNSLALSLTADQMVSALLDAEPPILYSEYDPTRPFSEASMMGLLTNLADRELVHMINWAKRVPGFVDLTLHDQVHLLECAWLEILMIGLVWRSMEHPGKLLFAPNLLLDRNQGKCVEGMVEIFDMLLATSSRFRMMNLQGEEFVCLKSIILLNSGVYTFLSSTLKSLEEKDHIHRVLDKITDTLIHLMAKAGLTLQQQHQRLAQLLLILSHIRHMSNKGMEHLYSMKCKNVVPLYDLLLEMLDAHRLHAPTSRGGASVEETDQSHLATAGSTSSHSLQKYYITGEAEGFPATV
# Procedure, shortened: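 ER levels given as a percentage of untreated/DMSO-treated wells (100%). Detection used primary antibodies for 2 h at room temperature followed by 680 and 800 nm fluorescent secondaries at 1:1000 for 1 h, read by LI-COR imaging.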
Compound,IC50 [1],DC50 [2],IC50 ([1]; T47D cell line)
"O=C1CCC(N2Cc3c(ccc4c3OCC43CCN(CC4CC5(CCN(c6ccc([C@@H]7c8ccc(O)cc8CC[C@@H]7c7ccccc7)cc6)CC5)C4)CC3)C2=O)C(=O)N1 (stereo partly drawn) [Compound B313, 3-(1′-((7-(4-((1R,2S)-6-hydroxy-2-phenyl-1,2,3,4-tetrahydronaphthalen-1-yl)phenyl)-7-azaspiro[3.5]nonan-2-yl)methyl)-6-oxo-6,8-dihydro-2H,7H-spiro[furo[2,3-e]isoindole-3,4′-piperidin]-7-yl)piperidine-2,6-dione]",< 1 nM,10 to 100 nM,–
"O=C1CC[C@H](NC(=O)c2ccc(N3CCN(CC4CCN(c5ccc([C@@H]6c7ccc(O)cc7CC[C@@H]6c6ccccc6)cc5)CC4)CC3)cc2)C(=O)N1 [Compound B315, N-((S)-2,6-dioxopiperidin-3-yl)-4-(4-((1-(4-((1R,2S)-6-hydroxy-2-phenyl-1,2,3,4-tetrahydronaphthalen-1-yl)phenyl)piperidin-4-yl)methyl)piperazin-1-yl)benzamide]",–,> 100 nM,1 to 10 nM
"O=C1CC[C@H](NC(=O)c2ccc(N3CCN(CC4CCN(c5ccc([C@@H]6c7ccc(O)cc7CC[C@@H]6c6ccccc6)cc5)CC4)CC3)cn2)C(=O)N1 [Compound B316, N-((S)-2,6-dioxopiperidin-3-yl)-5-(4-((1-(4-((1R,2S)-6-hydroxy-2-phenyl-1,2,3,4-tetrahydronaphthalen-1-yl)phenyl)piperidin-4-yl)methyl)piperazin-1-yl)picolinamide]",–,10 to 100 nM,1 to 10 nM
"O=C1CC[C@H](NC(=O)c2ccc(N3CCN(CC4CCN(c5ccc([C@@H]6c7ccc(O)cc7CC[C@@H]6c6ccccc6)cc5)CC4)CC3)cc2F)C(=O)N1 [Compound B317, N-((S)-2,6-dioxopiperidin-3-yl)-2-fluoro-4-(4-((1-(4-((1R,2S)-6-hydroxy-2-phenyl-1,2,3,4-tetrahydronaphthalen-1-yl)phenyl)piperidin-4-yl)methyl)piperazin-1-yl)benzamide]",–,> 100 nM,1 to 10 nM
"O=C1CCC(N2C(=O)c3cc4c(cc3C2=O)CN(CC(=O)N2CCOC3(CCN(c5ccc([C@@H]6c7ccc(O)cc7CC[C@@H]6c6ccccc6)cc5)CC3)C2)C4)C(=O)N1 (stereo partly drawn) [Compound B325, 2-(2,6-dioxopiperidin-3-yl)-6-(2-(9-(4-((1R,2S)-6-hydroxy-2-phenyl-1,2,3,4-tetrahydronaphthalen-1-yl)phenyl)-1-oxa-4,9-diazaspiro[5.5]undecan-4-yl)-2-oxoethyl)-6,7-dihydropyrrolo[3,4-f]isoindole-1,3(2H,5H)-dione]",–,10 to 100 nM,1 to 10 nM
"CN(C(=O)c1ccc2c(c1)OC[C@H]1CN(CC3CC4(CCN(c5ccc([C@@H]6c7ccc(O)cc7CC[C@@H]6c6ccccc6)cc5)CC4)C3)CCN21)C1CCC(=O)NC1=O (stereo partly drawn) [Compound B326, (4aR)-N-(2,6-dioxopiperidin-3-yl)-3-((7-(4-((1R,2S)-6-hydroxy-2-phenyl-1,2,3,4-tetrahydronaphthalen-1-yl)phenyl)-7-azaspiro[3.5]nonan-2-yl)methyl)-N-methyl-1,2,3,4,4a,5-hexahydrobenzo[b]pyrazino[1,2-d][1,4]oxazine-8-carboxamide]",–,> 100 nM,1 to 10 nM
"O=C1CCC(N2Cc3c(ccc4c3OC[C@H]3CN(CC5COC6(CN(c7ccc([C@@H]8c9ccc(O)cc9CC[C@@H]8c8ccccc8)cc7)C6)OC5)CCN43)C2=O)C(=O)N1 (stereo partly drawn) [Compound B327, 3-((R)-7-((2-(4-((1R,2S)-6-hydroxy-2-phenyl-1,2,3,4-tetrahydronaphthalen-1-yl)phenyl)-5,9-dioxa-2-azaspiro[3.5]nonan-7-yl)methyl)-1-oxo-1,3,5,5a,6,7,8,9-octahydro-2H-pyrazino[1′,2′:4,5][1,4]oxazino[2,3-e]isoindol-2-yl)piperidine-2,6-dione]",–,10 to 100 nM,< 1 nM
"O=C1CCC(N2Cc3cc4c(cc3C2=O)OC[C@@H]2CN(CC3COC5(CN(c6ccc([C@@H]7c8ccc(O)cc8CC[C@@H]7c7ccccc7)cc6)C5)OC3)CCN42)C(=O)N1 (stereo partly drawn) [Compound B328, 3-((S)-3-((2-(4-((1R,2S)-6-hydroxy-2-phenyl-1,2,3,4-tetrahydronaphthalen-1-yl)phenyl)-5,9-dioxa-2-azaspiro[3.5]nonan-7-yl)methyl)-8-oxo-1,2,3,4,4a,5,8,10-octahydro-9H-pyrazino[1′,2′:4,5][1,4]oxazino[2,3-f]isoindol-9-yl)piperidine-2,6-dione]",–,10 to 100 nM,1 to 10 nM
"O=C1CCC(N2C(=O)c3cc4c(cc3C2=O)N2C[C@@H](NCC3CC5(CCN(c6ccc([C@@H]7c8ccc(O)cc8CC[C@@H]7c7ccccc7)cc6)CC5)C3)C[C@H]2CO4)C(=O)N1 (stereo partly drawn) [Compound B329, (2S,3aS)-8-(2,6-dioxopiperidin-3-yl)-2-(((7-(4-((1R,2S)-6-hydroxy-2-phenyl-1,2,3,4-tetrahydronaphthalen-1-yl)phenyl)-7-azaspiro[3.5]nonan-2-yl)methyl)amino)-2,3,3a,4-tetrahydro-1H,7H-pyrrolo[1′,2′:4,5][1,4]oxazino[2,3-f]isoindole-7,9(8H)-dione]",–,> 100 nM,> 10 nM
"O=C1CCC(N2Cc3cc4c(cc3C2=O)OC[C@@H]2CN(CC3CCC5(CCN(c6ccc([C@@H]7c8ccc(O)cc8CC[C@@H]7c7ccccc7)cc6)CC5)OC3)CCN42)C(=O)N1 (stereo partly drawn) [Compound B332, 3-((4aS)-3-((9-(4-((1R,2S)-6-hydroxy-2-phenyl-1,2,3,4-tetrahydronaphthalen-1-yl)phenyl)-1-oxa-9-azaspiro[5.5]undecan-3-yl)methyl)-8-oxo-1,2,3,4,4a,5,8,10-octahydro-9H-pyrazino[1′,2′:4,5][1,4]oxazino[2,3-f]isoindol-9-yl)piperidine-2,6-dione]",–,< 10 nM,1 to 10 nM
"O=C1CC[C@H](N2Cc3c(ccc4c3OC[C@H]3CN(CC5CCC6(CN(c7ccc([C@@H]8c9ccc(O)cc9CC[C@@H]8c8ccccc8)cc7)C6)OC5)CCN43)C2=O)C(=O)N1 (stereo partly drawn) [Compound B333, (3S)-3-((5aR)-7-((2-(4-((1R,2S)-6-hydroxy-2-phenyl-1,2,3,4-tetrahydronaphthalen-1-yl)phenyl)-5-oxa-2-azaspiro[3.5]nonan-7-yl)methyl)-1-oxo-1,3,5,5a,6,7,8,9-octahydro-2H-pyrazino[1′,2′:4,5][1,4]oxazino[2,3-e]isoindol-2-yl)piperidine-2,6-dione]",–,< 10 nM,< 1 nM
"O=C1CCC(N2Cc3cc4c(cc3C2=O)OC[C@@H]2CN(CC3CCC5(CN(c6ccc([C@@H]7c8ccc(O)cc8CC[C@@H]7c7ccccc7)cc6)C5)OC3)CCN42)C(=O)N1 (stereo partly drawn) [Compound B334, 3-((4aS)-3-((2-(4-((1R,2S)-6-hydroxy-2-phenyl-1,2,3,4-tetrahydronaphthalen-1-yl)phenyl)-5-oxa-2-azaspiro[3.5]nonan-7-yl)methyl)-8-oxo-1,2,3,4,4a,5,8,10-octahydro-9H-pyrazino[1′,2′:4,5][1,4]oxazino[2,3-f]isoindol-9-yl)piperidine-2,6-dione]",–,10 to 100 nM,< 1 nM
"O=C1CCC(N2Cc3c(ccc4c3OCC43CCN(CC4CCC5(CN(c6ccc([C@@H]7c8ccc(O)cc8CC[C@@H]7c7ccccc7)cc6)C5)OC4)CC3)C2=O)C(=O)N1 (stereo partly drawn) [Compound B335, 3-(1′-((2-(4-((1R,2S)-6-hydroxy-2-phenyl-1,2,3,4-tetrahydronaphthalen-1-yl)phenyl)-5-oxa-2-azaspiro[3.5]nonan-7-yl)methyl)-6-oxo-6,8-dihydro-2H,7H-spiro[furo[2,3-e]isoindole-3,4′-piperidin]-7-yl)piperidine-2,6-dione]",< 1 nM,10 to 100 nM,–
"O=C1CC[C@H](NC(=O)c2ccc3c(n2)OC[C@H]2CN(CC4COC5(CCN(c6ccc([C@@H]7c8ccc(O)cc8CC[C@@H]7c7ccccc7)cc6)CC5)OC4)CCN32)C(=O)N1 [Compound B336, (R)-N-((S)-2,6-dioxopiperidin-3-yl)-3-((9-(4-((1R,2S)-6-hydroxy-2-phenyl-1,2,3,4-tetrahydronaphthalen-1-yl)phenyl)-1,5-dioxa-9-azaspiro[5.5]undecan-3-yl)methyl)-1,2,3,4,4a,5-hexahydropyrazino[1,2-d]pyrido[2,3-b][1,4]oxazine-8-carboxamide]",–,10 to 100 nM,1 to 10 nM
"O=C1CC[C@H](N2Cc3c(ccc4c3OCC43CCN(CC4COC5(CCN(c6ccc([C@@H]7c8ccc(O)cc8CC[C@@H]7c7ccccc7)cc6)CC5)OC4)CC3)C2=O)C(=O)N1 [Compound B337, (S)-3-(1′-((9-(4-((1R,2S)-6-hydroxy-2-phenyl-1,2,3,4-tetrahydronaphthalen-1-yl)phenyl)-1,5-dioxa-9-azaspiro[5.5]undecan-3-yl)methyl)-6-oxo-6,8-dihydro-2H,7H-spiro[furo[2,3-e]isoindole-3,4′-piperidin]-7-yl)piperidine-2,6-dione]",< 1 nM,< 10 nM,–
"O=C1CCC(N2C(=O)c3cc4c(cc3C2=O)CN(CC2COC3(CCN(c5ccc([C@@H]6c7ccc(O)cc7CC[C@@H]6c6ccccc6)cc5)CC3)OC2)C4)C(=O)N1 (stereo partly drawn) [Compound B338, 2-(2,6-dioxopiperidin-3-yl)-6-((9-(4-((1R,2S)-6-hydroxy-2-phenyl-1,2,3,4-tetrahydronaphthalen-1-yl)phenyl)-1,5-dioxa-9-azaspiro[5.5]undecan-3-yl)methyl)-6,7-dihydropyrrolo[3,4-f]isoindole-1,3(2H,5H)-dione]",–,10 to 100 nM,1 to 10 nM
"O=C1CCC(Nc2ccc(C3CCN(CC4COC5(CN(c6ccc([C@@H]7c8ccc(O)cc8CC[C@@H]7c7ccccc7)cc6)C5)OC4)CC3)cc2)C(=O)N1 (stereo partly drawn) [Compound B339, 3-((4-(1-((2-(4-((1R,2S)-6-hydroxy-2-phenyl-1,2,3,4-tetrahydronaphthalen-1-yl)phenyl)-5,9-dioxa-2-azaspiro[3.5]nonan-7-yl)methyl)piperidin-4-yl)phenyl)amino)piperidine-2,6-dione]",–,> 100 nM,1 to 10 nM
